Experimental data: EP4509511A1, “SUBSTITUTED SPIRO-ISOXAZOLINYL LACTAMS, SALTS THEREOF AND THEIR USE AS HERBICIDALLY ACTIVE SUBSTANCES” (Bayer Aktiengesellschaft, priority 2023, dated 2025)

Experiments:
[1] = test system: MATIN; assay: Herbicidal post-emergence action - Part I; assay type: in vivo, Matricaria inodora; details: 1280 g/ha, one-leaf stage, rated visually after about 3 weeks vs untreated controls
Protocol: (§1) Seeds of mono- and dicotyledonous weed plants were placed in plastic pots in sandy loam soil (doubly sown with in each case one species of mono- or dicotyledonous weed plants per pot), covered with soil and cultivated in a greenhouse under controlled growth conditions. 2 to 3 weeks after sowing, the test plants were treated at the one-leaf stage. The compounds of the invention, formulated in the form of wettable powders (WP) or as emulsion concentrates (EC), were applied onto the green parts of the plants as aqueous suspension or emulsion with addition of 0.5% additive at a water application rate of 600 liters per hectare (converted). After the test plants had been kept in the greenhouse under optimum growth conditions for about 3 weeks, the activity of the preparations was rated visually in comparison to untreated controls. For example, 100% activity = the plants have died, 0% activity = like control plants. Tables B1 to B12, below, show the effects of selected compounds of the general formula (I) according to table 1 on various harmful plants and an application rate corresponding to 1280 g/ha or below obtained by the experimental procedure mentioned above. Table B1a: post-emergence activity at 1280g/ha against ABUTH in %

[2] = test system: AMARE; assay: Herbicidal pre-emergence action - Part I; assay type: in vivo, Amaranthus retroflexus; details: visual grading after ca. 3 weeks vs untreated controls
In short: (§2)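 Visual % injury, ~3 weeks post-application, relative to untreated pots. Treatment: aqueous WP/EC preparation with 0.5% additive sprayed pre-emergence on soil at 600 l/ha, application rate 1280 g/ha or less.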

[3] = test system: AMARE; assay: Herbicidal post-emergence action - Part I; assay type: in vivo, Amaranthus retroflexus; details: one-leaf stage, rated visually after about 3 weeks vs untreated controls
In short: (§3)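 Activity was scored visually as % damage (100% = dead, 0% = like untreated) about 3 weeks after treatment. Plants at the one-leaf stage, 2-3 weeks old, were sprayed with WP/EC formulations plus 0.5% additive (600 L/ha water, up to 1280 g/ha). Plants were grown in sandy loam in a greenhouse.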

[4] = test system: SETVI; assay: Herbicidal pre-emergence action - Part I; assay type: in vivo, Setaria viridis; details: visual grading after ca. 3 weeks vs untreated controls
Description: (§4) Seeds of mono- and dicotyledonous weed plants were sown in plastic pots (double sowings with one species of mono- and one species of dicotyledonous weed plants per pot), in sandy loam, and covered with soil. The compounds according to the invention, formulated in the form of wettable powders (WP) or as emulsifiable concentrates (EC), were applied to the surface of the covering soil as aqueous suspension or emulsion, with the addition of 0.5% of an additive, at an application rate of 600 1 of water per hectare (converted). Following treatment, the pots were placed in a greenhouse and kept under optimum growth conditions for the test plants. The visual grading of the damage to the test plants was carried out after ca. 3 weeks in comparison to untreated controls (herbicidaleffectinpercent(%):100%effect=plantshavediedoff,0%effect=ascontrolplants). [formula]
(§5) Tables A1 to A12, below, show the effects of selected compounds of the general formula (I) according to table 1 on various harmful plants and an application rate corresponding to 1280 g/ha or below obtained by the experimental procedure mentioned above. Table A1: pre-emergence activity at 1280g/ha against ABUTH in %

[5] = test system: POAAN; assay: Herbicidal post-emergence action - Part I; assay type: in vivo, Poa annua; details: one-leaf stage, rated visually after about 3 weeks vs untreated controls
Protocol: as §1

[6] = test system: KCHSC; assay: Herbicidal pre-emergence action - Part I; assay type: in vivo, Kochia scoparia
Description: as §4, §5

[7] = test system: ECHCG; assay: Herbicidal post-emergence action - Part I; assay type: in vivo, Echinochloa crus-galli; details: 1280 g/ha, one-leaf stage, rated visually after about 3 weeks vs untreated controls
Protocol: as §1

[8] = test system: STEME; assay: Herbicidal pre-emergence action - Part I; assay type: in vivo, Stellaria media; details: visual grading after ca. 3 weeks vs untreated controls
In short: as §2

[9] = test system: MATIN; assay: Herbicidal pre-emergence action - Part I; assay type: in vivo, Matricaria inodora; details: visual grading after ca. 3 weeks vs untreated controls
Description: as §4, §5

[10] = test system: DIGSA; assay: Herbicidal pre-emergence action - Part I; assay type: in vivo, Digitaria sanguinalis; details: visual grading after ca. 3 weeks vs untreated controls
Description: as §4, §5

[11] = test system: SETVI; assay: Herbicidal post-emergence action - Part I; assay type: in vivo, Setaria viridis; details: one-leaf stage, rated visually after about 3 weeks vs untreated controls
Protocol: as §1

[12] = test system: KCHSC; assay: Herbicidal post-emergence action - Part I; assay type: in vivo, Kochia scoparia; details: one-leaf stage, rated visually after about 3 weeks vs untreated controls
In short: as §3

[13] = test system: ECHCG; assay: Herbicidal pre-emergence action - Part I; assay type: in vivo, Echinochloa crus-galli; details: visual grading after ca. 3 weeks vs untreated controls
In short: as §2

[14] = test system: POAAN; assay: Herbicidal pre-emergence action - Part I; assay type: in vivo, Poa annua; details: visual grading after ca. 3 weeks vs untreated controls
Description: as §4, §5

[15] = test system: VERPE; assay: Herbicidal post-emergence action - Part I; assay type: in vivo, Veronica persica; details: one-leaf stage, rated visually after about 3 weeks vs untreated controls
In short: as §3

[16] = test system: ABUTH; assay: Herbicidal post-emergence action - Part I; assay type: in vivo, Abutilon theophrasti; details: one-leaf stage, rated visually after about 3 weeks vs untreated controls
Protocol: as §1

[17] = test system: ALOMY; assay: Herbicidal post-emergence action - Part I; assay type: in vivo, Alopecurus myosuroides; details: one-leaf stage, rated visually after about 3 weeks vs untreated controls
Protocol: as §1

[18] = test system: LOLRI; assay: Herbicidal pre-emergence action - Part I; assay type: in vivo, Lolium rigidum; details: visual grading after ca. 3 weeks vs untreated controls
Description: as §4, §5

[19] = test system: STEME; assay: Herbicidal post-emergence action - Part I; assay type: in vivo, Stellaria media; details: one-leaf stage, rated visually after about 3 weeks vs untreated controls
In short: as §3

[20] = test system: DIGSA; assay: Herbicidal post-emergence action - Part I; assay type: in vivo, Digitaria sanguinalis; details: 1280 g/ha, one-leaf stage, rated visually after about 3 weeks vs untreated controls
Protocol: as §1

[21] = test system: LOLRI; assay: Herbicidal post-emergence action - Part I; assay type: in vivo, Lolium rigidum; details: one-leaf stage, rated visually after about 3 weeks vs untreated controls
Protocol: as §1

[22] = test system: ALOMY; assay: Herbicidal pre-emergence action - Part I; assay type: in vivo, Alopecurus myosuroides; details: visual grading after ca. 3 weeks vs untreated controls
Description: as §4, §5

[23] = Table A10a, 1280 g/ha, visual grading after ca. 3 weeks vs untreated controls

Structure (SMILES)	pre-emergence activity at 1280g/ha against AMARE in % [2] [%]	post-emergence activity at 1280g/ha against AMARE in % [3] [%]	pre-emergence activity at 1280g/ha and against SETVI in % [4] [%]	pre-emergence activity at 1280g/ha against KCHSC in % [6, 23] [%]	post-emergence activity at 1280g/ha against ECHCG in % [7] [%]	pre-emergence activity at 320g/ha against STEME in % [8] [%]	pre-emergence activity at 1280g/ha against STEME in % [8] [%]	pre-emergence activity at 320g/ha against MATIN in % [9] [%]	pre-emergence activity at 1280g/ha against MATIN in % [9] [%]	pre-emergence activity at 1280g/ha against DIGSA in % [10] [%]	post-emergence activity at 1280g/ha against SETVI in % [11] [%]	post-emergence activity at 1280g/ha against KCHSC in % [12] [%]	pre-emergence activity at 320g/ha against ECHCG in % [13] [%]	pre-emergence activity at 1280g/ha against ECHCG in % [13] [%]	pre-emergence activity at 320g/ha and against POAAN in % [14] [%]	pre-emergence activity at 1280g/ha and against POAAN in % [14] [%]	post-emergence activity at 1280g/ha against VERPE in % [15] [%]	pre-emergence activity at 1280g/ha against LOLRI in % [18] [%]	post-emergence activity at 1280g/ha against STEME in % [19] [%]	further results
Cc1ccsc1C1=NOC2(CCCN(Cc3ccccc3F)C2=O)C1 (racemic) [Compound I-1, 7-(2-Fluorobenzyl)-3-(3-methyl-2-thienyl)-1-oxa-2,7-diazaspiro[4.5]dec-2-en-6-one]	90	90	100	90	90	90	90	90	100	100	90	90	100	100	100	100	90	90	90	post-emergence activity at 1280g/ha against MATIN in % [1]: 90%; pre-emergence activity at 320g/ha against AMARE in % ([2]; 320 g/ha): 90%; pre-emergence activity at 320g/ha and against SETVI in % ([4]; 320 g/ha): 100%; post-emergence activity at 80g/ha against POAAN in % ([5]; 80 g/ha): 90%; post-emergence activity at 320g/ha against POAAN in % ([5]; 320 g/ha): 90%; post-emergence activity at 1280g/ha against POAAN in % ([5]; 1280 g/ha): 90%; pre-emergence activity at 1280g/ha against KCHSC in % ([6]; Table A10b, title 1280g/ha, application rate column prints 320 g/ha, visual grading after ca. 3 weeks vs untreated controls): 90%; pre-emergence activity at 80g/ha against STEME in % ([8]; 80 g/ha): 90%; post-emergence activity at 320g/ha against SETVI in % ([11]; 320 g/ha): 90%; post-emergence activity at 320g/ha against KCHSC in % ([12]; 320 g/ha): 90%; post-emergence activity at 320g/ha against VERPE in % ([15]; 320 g/ha): 90%; post-emergence activity at 320g/ha against ABUTH in % ([16]; 320 g/ha): 90%; post-emergence activity at 1280g/ha against ABUTH in % ([16]; 1280 g/ha): 90%; post-emergence activity at 1280g/ha against ALOMY in % [17]: 90%; post-emergence activity at 320g/ha against STEME in % ([19]; 320 g/ha): 90%
N#Cc1ncccc1C1=NOC2(CCN(Cc3ccccc3F)C2=O)C1 (racemic) [Compound I-35]	90	90	100	90	90	90	90	90	90	100	90	90	90	100	100	100	90	90	90	post-emergence activity at 1280g/ha against DIGSA in % [20]: 90%; post-emergence activity at 320g/ha against AMARE in % ([3]; 320 g/ha): 90%; pre-emergence activity at 1280g/ha against KCHSC in % ([6]; 1280 g/ha, 504 h): 90%; pre-emergence activity at 320g/ha against DIGSA in % ([10]; 320 g/ha): 100%; post-emergence activity at 1280g/ha against LOLRI in % [21]: 90%; pre-emergence activity at 1280g/ha against ALOMY in % [22]: 90%; pre-emergence activity at 320g/ha against LOLRI in % ([18]; 320 g/ha): 90%
